Laboratory results reported in patent US7618787B2, “Method of screening compound capable of accelerating or inhibiting apoptosis, apoptosis accelarator and apoptosis inhibitor” (Hisamitsu Pharmaceutical Co., Inc., priority 2004, dated 2009).

Assays:
NF-κB [1] = experiment: NF-κB reporter activation in L929 cells; type: cell-based, mouse; details: L929 cells (FIG. 8)
Procedure: (§1) As described above, the amount of nuclear transactivating p65 subunit was not changed in U2OS cells treated with cisplatin. […] U2OS cells transfected with a NF-κB reporter plasmid were treated with cisplatin and assayed for their luciferase activities. […] L929 cells have been used widely for examining the TNF-α-dependent activation of NF-κB.

L929 cells = experiment: Immunoblot of nuclear and cytoplasmic fractions of L929 cells; type: cell-based, mouse; details: L929 cells (FIG. 9)
Procedure: (§2) To prepare nuclear and cytoplasmic extracts, cells were washed with ice-cold PBS and suspended in lysis buffer (pH 7.5; which contained 10 mM Tris-Cl, 1 mM EDTA, 0.5% Nonidet P-40 (NP-40), 1 mM PMSF, and protease inhibitor mix (Sigma)). The suspended cells were incubated at 4° C. for 30 minutes and centrifuged at 5000 rpm for 10 minutes to collect soluble fractions (which were used as cytoplasmic extracts). Insoluble fractions were washed with lysis buffer and dissolved in 1×Laemmli SDS-sample buffer (pH 6.8; which contained 62.5 mM Tris-Cl, 2% SDS, 2% β-mercaptoethanol, and 0.01% bromophenol blue) to collect nuclear extracts. The nuclear and cytoplasmic fractions were subjected to immunoblot analysis using an anti-lamin B monoclonal (Ab-1; Oncogene Research Products) or anti-α-tubulin monoclonal (DM1A; Cell Signaling Technology) antibody.
as §1

U2OS cells [2] = experiment: Cell survival assay (MTT) of cisplatin-exposed cells; type: cell-based, human; details: cisplatin 20 μM, time course (FIG. 1)
Procedure: U2OS cells were seeded at a density of 5×10^3 cells/well to a 96-well tissue culture dish supplemented with 100 μL of complete medium, and then allowed to adhere thereto overnight. A cisplatin stock solution was filtered and sterilized with a filter of 0.45 μm in pore size and diluted with phosphate-buffered saline (PBS). Cisplatin was added at the final concentration of 20 μM to the cultures, followed by cell viability assay. The viability was assayed by a modified 3-(4,5-dimethylthiazol-2-yl)-2,5-diphenyl-tetrazolium bromide (MTT) assay at given time points after the cisplatin addition. The MTT assay was performed by adding 10 μL of MTT solution to each well and incubating the cultures at 37° C. for 1 hour. A microplate reader (Model 450; Bio-Rad) was used to measure the absorbance of each well at 570 nm.

U2OS cells [3] = experiment: Immunoblot of cell lysates of U2OS cells treated with cisplatin; type: cell-based, human
Procedure: Cells were transiently transfected with a total of 2 μg of expression plasmids. After 48 hours of the transfection, the cells were washed with ice-cold PBS and suspended in lysis buffer (pH 8.0; which contained 25 mM Tris-Cl, 137 mM sodium chloride, 1% Triton X-100, 1 mM phenylmethylsulfonyl fluoride (PMSF), and protease inhibitor mix (Roche Molecular Biochemicals)), followed by brief sonication. After centrifugation at 15000 rpm for 10 minutes, the supernatant was collected and assayed for protein concentrations by the Bradford assay (Bio-Rad). Equal amounts of lysates (protein amount: 50 μg) from the whole cells were denatured by boiling in Laemmli SDS-sample buffer, then separated on 10% SDS-polyacrylamide gel (SDS-PAGE), and transferred at room temperature for 1 hour to polyvinylidene difluoride (PVDF) membranes (Immobilon-P; Millipore) in Tris-glycine buffer containing 10% methanol. The membranes were blocked at room temperature for 1 hour with Tris-buffered saline (TBS-T) containing 5% skim milk and 0.1% Tween 20. Then, the membranes were reacted with an anti-FLAG monoclonal (M2; Sigma), anti-HA monoclonal (12CA5; Roche Molecular Biochemicals), anti-p73 monoclonal (Ab-4; NeoMarkers), anti-p53 monoclonal (DO-1; Oncogene Research Products), anti-Bax monoclonal (6A7; eBioscience), anti-IKK-α polyclonal (M-280; Santa Cruz Biotechnology), anti-IKK-β polyclonal (H-470; Santa Cruz Biotechnology), anti-IKK-γ polyclonal (FL-417; Santa Cruz Biotechnology), anti-p65 polyclonal (C-20; Santa Cruz Biotechnology), anti-IκB-α polyclonal (C-21; Santa Cruz Biotechnology), anti-actin polyclonal (20-33, Sigma), or anti p21^WAF1 polyclonal (H-164; Santa Cruz Biotechnology) antibody used as a primary antibody. After the reaction with the primary antibody, the membranes were reacted at room temperature for 1 hour with a horseradish peroxidase (HRP)-labeled goat anti-mouse or anti-rabbit secondary antibody (Cell Signaling Technologies) diluted 2000-fold in TBS-T. Immunoreactive proteins were finally visualized by use of an enhanced chemiluminescence system (ECL; Amersham Pharmacia Biotech) according to the manufacturer's instruction.

U2OS cells [4] = experiment: RT-PCR analysis of RNA from U2OS cells treated with cisplatin; type: cell-based, human
Procedure: Total RNA was extracted from U2OS cells exposed to cisplatin (final concentration: 20 μM) by use of RNeasy Mini Kit (Qiagen) according to the manufacturer's protocol. Reverse transcription reaction was performed by mixing the total RNA (5 μg) with SuperScript II reverse transcriptase (Invitrogen) and random primers and incubating the mixture at 42° C. for 1 hour. After the completion of the reaction, cDNA was diluted with water and amplified with 15 μL of reaction solution (which contained 100 μM of each deoxynucleoside triphosphate, 1×PCR buffer, 1 μM of each primer, and 0.2 units of rTaq DNA polymerase (Takara Bio)). GAPDH expression was assayed and used as an internal standard. The PCR amplification products were separated by electrophoresis with 1.5% agarose gel in TAE buffer (40 mM Tris-Cl, 1 mM EDTA) and visualized with ethidium bromide (post-staining).

U2OS cells [5] = experiment: Immunoblot of nuclear and cytoplasmic fractions of U2OS cells treated with cisplatin; type: cell-based, human
Procedure: as §2, with “antibody. Nuclear and cytoplasmic extracts were prepared from cisplatin-exposed or untreated U2OS cells and subjected to immunoblot with a given antibody. The purity of the nuclear and cytoplasmic fractions was confirmed by immunoblot using anti-lamin B and anti-α-tubulin antibodies, respectively. In agreement with the previously reported results, IKK-α was localized in both the nucleus and the cytoplasm, whereas IKK-β was largely expressed in the cytoplasm (FIG. 4). The amounts of IKK-α, IKK-β, and IKK-γ in the cytoplasm were not changed regardless of cisplatin treatment.” for “antibody.”

NF-κB [6] = experiment: NF-κB reporter luciferase assay in U2OS cells; type: cell-based, human; details: U2OS cells transfected with NF-κB reporter plasmid (FIG. 7)
Procedure: as §1

Compound | NF-κB-dependent transcriptional activation (NF-κB [1]) | nuclear accumulation of p65 (L929 cells) | cell viability / apoptosis of U2OS cells (U2OS cells [2]) | IKK-α protein level (U2OS cells [3]; 12 to 36 hours after cisplatin exposure (FIG. 2)) | IKK-γ (NEMO) protein level (U2OS cells [3]; after 12 hours of cisplatin treatment) | p53 and p73α protein levels (U2OS cells [3]; cisplatin exposure (FIG. 2)) | amount of IKK-β (U2OS cells [3]; cisplatin treatment) | phosphorylated form of IκB-α (U2OS cells [3]; cisplatin treatment) | expression of IKK-α and IKK-β mRNAs (U2OS cells [4]; cisplatin 20 μM (FIG. 3)) | expression of p53 and p73α mRNAs (U2OS cells [4]; cisplatin 20 μM (FIG. 3)) | expression level of IKK-γ mRNA (U2OS cells [4]; cisplatin 20 μM, time-dependent (FIG. 3)) | cytoplasmic IκB-α (U2OS cells [5]; U2OS cytoplasmic fraction (FIG. 4)) | nuclear accumulation of IKK-α (U2OS cells [5]; U2OS nuclear fraction (FIG. 4)) | nuclear accumulation of p65-NF-κB subunit (RelA) (U2OS cells [5]; U2OS nuclear fraction (FIG. 4)) | NF-κB-dependent transcriptional activation (NF-κB [6])
TNF-α | NF-κB-dependent transcriptional activation was observed after 2 hours | remarkably accumulated p65 in the nucleus | – | – | – | – | – | – | – | – | – | – | – | – | –
N.N.[Cl][Pt][Cl] [cisplatin] | – | – | underwent apoptosis in a time-dependent manner | remarkably accumulated IKK-α | transiently increased | remarkably induced at protein levels | hardly changed the amount of IKK-β | remarkably increased the phosphorylated form of IκB-α | not changed | not induced | remarkable increase | decreased in a time-dependent manner | remarkably accumulated IKK-α in the nucleus in a time-dependent manner | almost no effect on the nuclear accumulation of p65-NF-κB subunit | did not enhance NF-κB-dependent transcriptional activation
